From ChEMBL document CHEMBL1135525, “Probing the ATP ribose-binding domain of cyclin-dependent kinases 1 and 2 with O(6)-substituted guanine derivatives” (J Med Chem, 2002) come the findings set out here.

Broadly, the IC50 is the concentration that gives 50% inhibition. Read a high IC50 as a need for much substance. The GI50 is the concentration at which growth is held to half of that of the control. Lower therefore signals greater sensitivity of the cells. For orientation: inhibition means how much of the control response was suppressed. The low end stands for a weak effect, the high end for a strong effect.

Assay [1] addresses T1, Cyclin-dependent kinase 2/cyclin A (Homo sapiens, UniProt P24941). Briefly: Inhibition of human Cyclin-dependent kinase 2-cyclin A. Format: protein-complex assay.
A further assay has as its system MCF7. Briefly: Inhibition of MCF-7 human breast carcinoma cell proliferation. Format: functional.
Assay [2] concerns the target T2, Cyclin-dependent kinase 1/cyclin B1 (Homo sapiens, UniProt P06493+P14635). Briefly: Inhibition of starfish oocyte (Marthasteria glacialis) Cyclin-dependent kinase 1-cyclin B1 at a concentration of 100 uM. Format: protein-complex assay. Particulars: Asteroidea.
Target sequence in this assay (P06493 whole entry, looked up): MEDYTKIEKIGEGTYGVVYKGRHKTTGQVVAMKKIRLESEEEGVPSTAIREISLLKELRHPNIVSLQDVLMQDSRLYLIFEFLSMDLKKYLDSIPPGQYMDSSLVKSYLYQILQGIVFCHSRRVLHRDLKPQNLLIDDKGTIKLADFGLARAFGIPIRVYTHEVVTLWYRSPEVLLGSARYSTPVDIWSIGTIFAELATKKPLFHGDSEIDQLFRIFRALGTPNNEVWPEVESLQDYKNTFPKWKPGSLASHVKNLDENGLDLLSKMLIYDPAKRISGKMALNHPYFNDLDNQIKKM
Target sequence in this assay (P14635 whole entry, looked up): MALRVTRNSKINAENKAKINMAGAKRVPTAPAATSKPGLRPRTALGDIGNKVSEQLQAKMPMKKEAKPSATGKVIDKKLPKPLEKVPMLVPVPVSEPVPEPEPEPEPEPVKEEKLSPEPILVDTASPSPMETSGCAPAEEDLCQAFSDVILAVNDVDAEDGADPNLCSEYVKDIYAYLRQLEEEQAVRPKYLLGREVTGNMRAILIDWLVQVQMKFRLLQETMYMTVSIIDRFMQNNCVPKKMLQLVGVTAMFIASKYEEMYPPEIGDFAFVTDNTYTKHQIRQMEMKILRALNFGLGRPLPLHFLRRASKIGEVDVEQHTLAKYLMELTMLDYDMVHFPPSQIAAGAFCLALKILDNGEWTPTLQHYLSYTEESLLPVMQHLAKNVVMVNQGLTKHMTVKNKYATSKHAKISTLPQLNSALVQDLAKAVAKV
In assay [3] the target is T3, Cyclin-dependent kinase 2/cyclin A (Homo sapiens) (UniProt P24941+P20248+P78396). Description: Inhibition of human Cyclin-dependent kinase 2-cyclin A3 at a concentration of 100 uM. The format is protein-complex assay.
Assay [4] concerns the target T3, Cyclin-dependent kinase 2/cyclin A (Homo sapiens). Description: Inhibition of human Cyclin-dependent kinase 2-cyclin A at a concentration of 100 uM. The format is protein-complex assay.
The target of assay [5] is T2, Cyclin-dependent kinase 1/cyclin B1. Description: Inhibition of starfish oocyte (Marthasteria glacialis) Cyclin-dependent kinase 1-cyclin B1 at a concentration of 10 uM. Format: protein-complex assay. Particulars: Asteroidea.
Target sequence in this assay (P06493 whole entry, looked up): as the sequence (P06493 whole entry, looked up) above
Target sequence in this assay (P14635 whole entry, looked up): as the sequence (P14635 whole entry, looked up) above
Assay [6] has as its target T3, Cyclin-dependent kinase 2/cyclin A (Homo sapiens). Briefly: Inhibition of human Cyclin-dependent kinase 2-cyclin A at a concentration of 10 uM. The format is protein-complex assay.
Assay [7] has the same target. Description: Inhibition of human Cyclin-dependent kinase 2-cyclin A3 at 100 uM. The format is protein-complex assay.
Assay [8] has the same target. Description: Inhibition of Cyclin-dependent kinase 2-cyclin A at 10 uM. Format: protein-complex assay.
Assay [9] deals with T1, Cyclin-dependent kinase 2/cyclin A. Briefly: Inhibition of human Cyclin-dependent kinase 2-cyclin A3. Format: protein-complex assay.
The target in assay [10] is T3, Cyclin-dependent kinase 2/cyclin A (Homo sapiens). Description: Inhibition of Cyclin-dependent kinase 2-cyclin A at 100 uM. The format is protein-complex assay.
The target in assay [11] is T2, Cyclin-dependent kinase 1/cyclin B1. Description: Inhibition of starfish oocyte (Marthasteria glacialis) Cyclin-dependent kinase 1-cyclin B1. The format is protein-complex assay, Asteroidea.
Target sequence in this assay (P06493 whole entry): as the sequence (P06493 whole entry, looked up) above
Target sequence in this assay (P14635 whole entry): as the sequence (P14635 whole entry, looked up) above
For assay [12], the target named is T3, Cyclin-dependent kinase 2/cyclin A (Homo sapiens). Description: Inhibition of human Cyclin-dependent kinase 2-cyclin A at 100 uM. Format: protein-complex assay.

With `C=C(COc1nc(N)nc2nc[nH]c12)c1ccccc1`, the midpoint of inhibition in [1], the IC50, lay at 34 µM. For the same compound, halving of growth with MCF7 (GI50) required 28 µM. Turning to `COC1OC(COc2nc(N)nc3[nH]cnc23)C2OC(C)(C)OC12` (stereo not drawn), the inhibition in [2] turned out to be 10%; in assay [3], 16%. This compound also came in with a GI50 in the assay with MCF7 greater than 100 µM. Turning to `Nc1nc(OCC2CC=CCC2)c2[nH]cnc2n1` (stereo not drawn), the IC50 in assay [1] is 13 µM. The same compound came in with a concentration for 50% growth inhibition (GI50) in the assay with MCF7 of 37 µM. In the case of `Nc1nc(OCC2CCCO2)c2[nH]cnc2n1` (stereo not drawn), the figures for the inhibition in assay [4] and in [2] were 40% and 49%, respectively. Turning to `CC1(C)OCC(COc2nc(N)nc3[nH]cnc23)O1` (stereo not drawn), the inhibition came to 43% in assay [2] and 36% in [3]. The matching figures for `Nc1nc(OCC2COC3(CCCCC3)O2)c2[nH]cnc2n1` (stereo not drawn): 26% and 29%. The matching figures for `Nc1nc(OC[C@H]2CCC(=O)N2)c2nc[nH]c2n1`: 50% and 35%. Take `C=C(C)[C@H]1CC=C(COc2nc(N)nc3[nH]cnc23)CC1`: the inhibition in assay [5] was 17%; in assay [6], 18%. Take `Nc1nc(OCc2ccccn2)c2nc[nH]c2n1`: the results for the inhibition in assay [2] and in assay [3] were 58% and 43%, respectively.

As to `CC(=O)COc1nc(N)nc2[nH]cnc12`, the inhibition was found to be 16% in [4] and 15% in [2].

Consider `Nc1nc(OCC2CCCCC2)c2nc[nH]c2n1`, for which, in the assay on MCF7, the concentration for 50% growth inhibition (GI50) was determined as 20 µM. Compound `Nc1nc(OCCC2CCCCC2)c2nc[nH]c2n1` yielded a concentration for half-maximal inhibition (IC50) in assay [1] of 44 µM.

As to `Nc1nc(OCC2CCCCO2)c2nc[nH]c2n1` (stereo not drawn), the inhibition is 43% in assay [7] and 50% in [2]. With `CCOC.CCOC(C)COc1[nH]c(N)nc2ncnc1-2` (stereo not drawn), the 50% inhibitory concentration (IC50) in [1] stood at 33 µM. For `Nc1nc(OCC2CCCNC2)c2nc[nH]c2n1` (stereo not drawn), the inhibition in assay [2] is 70%; in [3], 64%. On to `Nc1nc(OCC2CCCC2)c2nc[nH]c2n1`, for which the midpoint of inhibition in [1], the IC50, lay at 21 µM. In the case of `Nc1nc(OCC2=CCCC2)c2[nH]cnc2n1`, the IC50 in assay [1] came out at 31 µM. The same measure, in the same setting: the value for `CCCCOc1nc(N)nc2[nH]cnc12` was 48 µM. `Nc1nc(OCc2cccnc2)c2nc[nH]c2n1`: the inhibition in [2] came out at 55%; in [3] it was 43%. The corresponding values for `CC1(C)OC2OC(COc3nc(N)nc4[nH]cnc34)C3OC(C)(C)OC3C2O1` (stereo not drawn) are 10% and 4%.

`C=C(COc1nc(N)nc2[nH]cnc12)C(C)C` registered a half-maximal inhibitory concentration (IC50) in assay [1] of 16 µM. For `CCOc1nc(N)nc2[nH]cnc12`, the inhibition worked out at 51% in assay [4] and 48% in [2]. Take `Nc1nc(OCc2cccc(Cl)c2)c2nc[nH]c2n1`: the inhibition in assay [5] is 28%; in assay [8] it was 19%.

`COc1nc(N)nc2nc[nH]c12`: the values for the inhibition in assay [4] and in assay [2] were 35% and 36%, respectively. `CC(C)C1(COc2nc(N)nc3[nH]cnc23)OCCO1` displayed an IC50 in assay [9] of 65 µM. Consider `Nc1cccc(COc2nc(N)nc3[nH]cnc23)c1`, for which the inhibition turned out to be 65% in assay [2] and 52% in assay [10]. Turning to `C=C(CC)COc1nc(N)nc2[nH]cnc12`, the IC50 in assay [1] is 21 µM. On the same count and under the same terms, the value for `CC/C=C/CCOc1nc(N)nc2[nH]cnc12` was 69 µM. For the compound `CCCCCCCOc1nc(N)nc2[nH]cnc12`, the IC50 was greater than 100 µM in assay [1] and 62 µM in assay [11].

As for `Nc1nc(OCC2=CCCCC2)c2[nH]cnc2n1`, in [1], the half-inhibitory concentration (IC50) came to 22 µM.

Take `Nc1nc(OCC2COc3ccccc3O2)c2nc[nH]c2n1` (stereo not drawn): the inhibition in assay [2] and in [3] was 52% throughout. With `C=CCCCCOc1nc(N)nc2[nH]cnc12`, the concentration for half-maximal inhibition (IC50) in assay [1] was determined as 47 µM. Same read-out and setting: with `C#CCOc1nc(N)nc2nc[nH]c12` the figure was 90 µM.

In the case of `Nc1nc(OCC(O)CO)c2nc[nH]c2n1` (stereo not drawn), the values for the inhibition in [4] and in [2] were 33% and 35%, respectively.

As to `Nc1nc(OCC=C2CCCCC2)c2nc[nH]c2n1`, the inhibition in assay [5] worked out at 21%; in assay [6], 12%. Take `CC(C)Oc1[nH]c(N)nc2ncnc1-2`: the half-maximal inhibitory concentration (IC50) in [1] stood at 75 µM. Take `Nc1nc(OCc2cccc3ccccc23)c2nc[nH]c2n1`: the inhibition in assay [5] turned out to be 10%; in assay [6], 3%. Turning to `CC1(C)OC[C@H](COc2nc(N)nc3[nH]cnc23)O1`, the inhibition is 31% in assay [2] and 27% in [3]. Turning to `CCC(C)Oc1nc(N)nc2[nH]cnc12` (stereo not drawn), half-maximal inhibition in assay [1] (IC50) required 25 µM. The compound `CCCOc1nc(N)nc2nc[nH]c12` displayed an IC50 in assay [1] of 67 µM.

`Nc1nc(OCc2ccc3ccccc3c2)c2[nH]cnc2n1`: the inhibition in [5] is 12%; in assay [6], 9%.

`C=C(C)COc1nc(N)nc2nc[nH]c12`: the IC50 in assay [1] was determined as 35 µM. The same measure, in the same setting: with `CCCCCOc1nc(N)nc2[nH]cnc12` the figure was 49 µM. With `Nc1nc(OC[C@@H]2CCC(=O)N2)c2nc[nH]c2n1`, the inhibition turned out to be 22% in assay [2] and 15% in assay [3]. In assay [1], `C=CCOc1nc(N)nc2nc[nH]c12` showed an IC50 of 78 µM.

The compound `CC(C)CCOc1nc(N)nc2nc[nH]c12` had an IC50 in assay [1] of 26 µM.

For `COCC(COc1nc(N)nc2[nH]cnc12)OC` (stereo not drawn), the inhibition in assay [4] was 41%; in assay [2], 49%. Regarding `CCC(COc1nc(N)nc2[nH]cnc12)(OC)OC`, the IC50 in assay [1] was 20 µM; in assay [11] it was 19 µM. In [1], `Nc1nc(OCc2ccccc2)c2[nH]cnc2n1` [6-O-BENZYLGUANINE] had an IC50 of 35 µM. On to `Nc1nc(OCC23CC4CC(CC(C4)C2)C3)c2nc[nH]c2n1`, for which the inhibition in assay [5] turned out to be 55%; in assay [6], 29%. In assay [1], `Nc1nc(OCCc2ccccc2)c2nc[nH]c2n1` came in with an IC50 of 65 µM. For the compound `CC(C)C(=O)COc1nc(N)nc2nc[nH]c12`, the figures for the inhibition in [4] and in assay [2] were 31% and 41%, respectively. As for `CC1(C)OC[C@@H](COc2nc(N)nc3[nH]cnc23)O1`, the inhibition in assay [2] was 46%; in [3] it was 39%. As to `CCC(C)COc1nc(N)nc2nc[nH]c12` (stereo not drawn), the IC50 in [1] amounted to 15 µM. Still for that read-out and setting: with `CC(C)COc1nc(N)nc2[nH]cnc12` the figure was 42 µM. Regarding `Cc1cccc(COc2nc(N)nc3nc[nH]c23)c1`, the inhibition in assay [2] was 70%; in assay [12], 52%. Take `COc1cccc(COc2nc(N)nc3[nH]cnc23)c1`: the inhibition in [2] worked out at 65%; in assay [8] it was 49%. For the compound `Nc1nc(OCC2CCNCC2)c2nc[nH]c2n1`, the values for the inhibition in [2] and in [3] were 52% and 43%, respectively.
